Experimental data as given in US20220192955A1, “AZOXYSTROBIN EFFICACY IN SCALP HEALTH” (The Procter & Gamble Company, priority 2020, published 2022).
Marks after values point to notes of the source that are not given here.

Assays:
human scalp (dandruff) = test: In vivo scalp health study: adherent scalp flaking score (ASFS)
Protocol: Subjects are enrolled in a double-blind, randomized study for all test groups and have Baseline and Week 3 measurements of scalp health taken for flaking, itch and scalp health endpoints. Subjects take home a test product(s) and are instructed on use of test products throughout the study. Test products are solubilized in a hydroalcoholic leave-on formulation. Azoxystrobin raw material is sourced from AK Scientific Inc. (Union City, Calif.) as >97% pure. Azoxystrobin scalp treatment is prepared from a slurry of azoxystrobin in ethanol that is formulated to 0.1% (w/v) in a base chassis of 50% ethanol, 0.35% Ultrez 21 (rheology modifier), 0.05% neutrol TE and water (q.s.). Vehicle scalp treatment is prepared similarly without the addition of azoxystrobin raw material. Subjects apply either azoxystrobin or vehicle scalp treatments daily for 3 weeks. Grading of the scalp is performed by qualified expert graders for adherent scalp flaking scores (ASFS) as described in published methods. Detailed methods can be found in Journal of Dermatological Treatment 2014, 25, 232-236, incorporated by reference herein. Briefly, flaking severity of a subject is assessed by examination of the scalp which is illuminated by lighting that mimics daylight conditions. The scalp is divided into eight sections and each section is assessed for the presence of dandruff flakes that are adhering to the scalp skin using a 0 to 10 (increment of 2 units) scale. Loose flakes in the hair are not considered in the grading. The final, or total, ASFS is the sum of the grades for all eight scalp sections, which results in a scale ranging from 0 to 80 units. The change in flaking across time is reported as change from baseline at the 3-week time point.

Myeloperoxidase = test: Scalp tape strip myeloperoxidase protein; assay type: in vivo, human
Protocol: (§1) Subjects are enrolled in a double-blind, randomized study for all test groups and have Baseline and Week 3 measurements of scalp health taken for flaking, itch and scalp health endpoints. Subjects take home a test product(s) and are instructed on use of test products throughout the study. Test products are solubilized in a hydroalcoholic leave-on formulation. Azoxystrobin raw material is sourced from AK Scientific Inc. (Union City, Calif.) as >97% pure. Azoxystrobin scalp treatment is prepared from a slurry of azoxystrobin in ethanol that is formulated to 0.1% (w/v) in a base chassis of 50% ethanol, 0.35% Ultrez 21 (rheology modifier), 0.05% neutrol TE and water (q.s.). […] Biomarkers of scalp health, including biomarkers of inflammation, itch, oxidative stress and barrier integrity are assessed by non-invasive tape strip sampling of the scalp surface to determine therapeutic resolution. All biomarkers are analyzed from D-Squame® scalp tape samples that are collected from the scalp of subjects before and after scalp treatment with either azoxystrobin or vehicle (Baseline, and Week 3 respectively). These are extracted and analyzed according to published methods (International Journal of Dermatology 2011, 50, 102-113, incorporated by reference herein). […] Myeloperoxidase protein is analyzed to determine the impact of scalp treatment oxidative stress and potential oxidative damage. […]

IL-1RA: IL-1α = test: Scalp tape strip inflammatory cytokines IL-1RA:IL-1α; assay type: in vivo, human
Protocol: as §1, with “Human inflammatory cytokines are” for “Myeloperoxidase protein is”, “evaluate skin irritation” for “determine the impact of scalp treatment oxidative stress”, “inflammatory processes.” for “potential oxidative damage.”

[1] = 0.1% leave-on daily, Week 3, scalp tape strips

## CO/C=C(/C(=O)OC)c1ccccc1Oc1cc(Oc2ccccc2C#N)ncn1 [Azoxystrobin]
Human scalp (dandruff); 0.1% (w/v) hydroalcoholic leave-on, daily, 3 weeks, dandruff subjects, scale 0 to 80
  Flaking Results (ASFS Change from Baseline): −13.88
Human scalp (dandruff); after 3 weeks of treatment
  reduction in flaking: 45%
Human scalp (dandruff); after 3 weeks of treatment, p=0.002
  ASFS reduction more than the placebo: 4.7 units
Myeloperoxidase; [1]
  Myeloperoxidase Results % Change from Baseline: 63.7* %
Myeloperoxidase; compared to a placebo control
  reduction in myeloperoxidase: 64%
IL-1RA: IL-1α; [1]
  IL-1RA: IL-1α ratio, % Change from Baseline: −58.3* %
IL-1RA: IL-1α; compared to a placebo control
  reduction of Interleukin-1 (IL-1RA: IL-1α): 58%
